Several values for one entry are separate records, joined by “and”; a condition that tells them apart may be missing. Equal entries are not always repeated. Entries after “also recorded” stand apart in the source; their conditions may differ. Structures can show the parent of a compound that is named as a salt. Where two headings read alike, the source gives them in different places.
How the values were obtained:
HIV (SF2 virus) [1] = assay: HIV infectivity assay, SF2-infected H9 cells, p24 quantification; type: cell-based; conditions: hydrochloride
Procedure: The remaining wells were filled with sterile distilled water. The cell culture plates were incubated at 37° C. and 5% CO2. After four days the medium was changed, after eight days the medium was changed and the cells were collected. After 11 days, the infection was stopped, the cells were viewed in a 10× magnification microscope and 650 μl of each cell supernatant was collected and frozen at −80° C. for further analysis. After five more days, the supernatants were thawed and used in a conventional reverse transcriptase (RT) activity assay (e.g., Roche AMPLICOR MONITOR™) or a p24 quantification assay (e.g., Abbott Laboratories, Chicago). (See U.S. Pat. No. 6,258,932 and U.S. patent application Ser. No. 10/235,158, both of which are hereby expressly incorporated by reference in its entireties).
[…] The cells in the samples were counted and then centrifuged. The cells were then resuspended in 10 ml of RPMI 1640 (containing fetal calf serum) and either […] Metabolite X or 100 μM GPG-NH2. Uninfected control and untreated control samples were also included in the experiment. The samples were then incubated overnight at 37° C. at 5% CO2.
Then, the amount of p24 in the samples was analysed using a conventional p24 detection assay (see U.S. Pat. No. 6,258,932).
Three replicate samples (“replicates”) of uninfected samples and untreated samples were also included in the experiment as controls. The inhibition of HIV replication was monitored by quantifying the levels of p24 using a conventional detection kit.
Three replicates of unninfected samples and untreated samples were also included in the experiment as controls.

HIV (SF2 virus) [2] = assay: HIV infectivity assay, SF2-infected H9 cells, reverse transcriptase (RT) quantification in supernatant; type: cell-based; conditions: for RT mean / RT / OD405-620 / OD405-620 - Blank: fetal calf serum; for RT mean: mean of replicates; for RT: single replicate; for RT / OD405-620 / OD405-620 - Blank: listed as αHGA, hydrochloride
HIV-2 (ROD) = assay: microbe, parasite or virus in culture; type: cell-based; conditions: Human immunodeficiency virus 2, CCRF-CEM, read-out: EC50 (CEM) HIV-2 (ROD)
Procedure: Human T-lymphocytic CEM cells (4.5×10^5 cells per ml) were suspended in fresh cell culture medium and infected with HIV-1 (IIIB and NL4.3) or HIV-2 (ROD or EHO) at 100 CCID50 (1 CCID50 being the virus dose infective for 50% of the cell cultures) per ml of cell suspension. Then, 100 μl of the infected cell suspension were transferred to microplate wells, mixed with 100 μl of appropriate (freshly prepared) dilutions of the test compounds (i.e., at final concentrations of […]), and were further incubated at 37° C. After 4 to 5 days, giant cell formation was recorded microscopically in the CEM cell cultures. […] (See Table 1).
(§1) MT-4, C8166 or CEM cells (4 to 5×10^5 cells per ml) were suspended in fresh culture medium (RPMI-1640 medium supplemented with 10% fetal bovine serum (FBS) (BioWittaker Europe, Verviers, Belgium), 2 mM L-glutamine and […] NaHCO3). Subsequently, the cells were infected with HIV-1 (IIIB) or HIV-2(ROD) at ˜100 CCID50 (1 CCID50 being the dose infective for 50% of the cell cultures) per ml of cell suspension. Then, 100 μl of the infected cell suspension were transferred to 96-well microplate wells, mixed with 100 μl of the appropriate (5-fold) dilutions of the test compounds and further incubated at 37° C. After 4 to 5 days, giant cell formation was recorded microscopically in the CEM and C8166 cell cultures. The MT-4 cell cultures were treated with trypan blue and the number of viable cells was determined.

HIV-2(ROD) = assay: microbe, parasite or virus in culture
Procedure: as §1

HIV-1 (IIIB) = assay: microbe, parasite or virus in culture; conditions: Human immunodeficiency virus 1, IIIB
Procedure: as §1

NC(=O)C(N)O (stereo not drawn) [AlphaHGA, α-Hydroxy-glycinamide hydrochloride]
OD1 (HIV (SF2 virus) [1]; 50 μM, fetal calf serum, replicates (1)-(3)): 0.183 and 0.232 and 0.147 | OD2 (HIV (SF2 virus) [1]; 50 μM, fetal calf serum): 0.185 and 0.216 and 0.139 | conc p24 (HIV (SF2 virus) [1]; 50 μM, fetal calf serum): 0.26 ng/mL and 0.33 ng/mL and 0.20 ng/mL | mean OD (HIV (SF2 virus) [1]; 50 μM, fetal calf serum): 0.184 and 0.224 and 0.143 | mean OD - blank (HIV (SF2 virus) [1]; 50 μM, fetal calf serum): 0.142 and 0.182 and 0.101 | inhibition of HIV, accumulation of p24, compared with reference (HIV (SF2 virus) [1]; fetal calf serum): as effectively as GPG-NH2; also recorded: as effectively as G-NH2 | inhibition of HIV replication, accumulation of p24 (HIV (SF2 virus) [1]; human serum): effective inhibitors of HIV replication in human serum; also recorded: inhibited HIV replication in human serum | RT mean (HIV (SF2 virus) [2]; 0.5 μM): 7539 pg/mL | RT (HIV (SF2 virus) [2]; 0.5 μM): 6982 pg/mL and 9916 pg/mL and 5721 pg/mL | OD405-620 (HIV (SF2 virus) [2]; 0.5 μM): 0.692 and 0.962 and 0.576 | OD405-620 - Blank (HIV (SF2 virus) [2]; 0.5 μM): 0.666 and 0.936 and 0.55 | RT mean (HIV (SF2 virus) [2]; 1 μM): 4594 pg/mL | RT (HIV (SF2 virus) [2]; 1 μM): 5590 pg/mL and 4482 pg/mL and 3710 pg/mL | OD405-620 (HIV (SF2 virus) [2]; 1 μM): 0.564 and 0.462 and 0.391 | OD405-620 - Blank (HIV (SF2 virus) [2]; 1 μM): 0.538 and 0.436 and 0.365 | RT mean (HIV (SF2 virus) [2]; 2 μM): 5934 pg/mL | RT (HIV (SF2 virus) [2]; 2 μM): 8003 pg/mL and 6492 pg/mL and 3308 pg/mL | RT mean (HIV (SF2 virus) [2]; 4 μM): 5315 pg/mL | RT (HIV (SF2 virus) [2]; 4 μM): 5340 pg/mL and 4688 pg/mL and 5916 pg/mL | OD405-620 (HIV (SF2 virus) [2]; 4 μM): 0.541 and 0.481 and 0.594 | OD405-620 - Blank (HIV (SF2 virus) [2]; 4 μM): 0.515 and 0.455 and 0.568 | RT mean (HIV (SF2 virus) [2]; 8 μM): 5300 pg/mL | RT (HIV (SF2 virus) [2]; 8 μM): 6688 pg/mL and 4971 pg/mL and 4242 pg/mL | OD405-620 (HIV (SF2 virus) [2]; 8 μM): 0.665 and 0.507 and 0.44 | OD405-620 - Blank (HIV (SF2 virus) [2]; 8 μM): 0.639 and 0.481 and 0.414 | RT mean (HIV (SF2 virus) [2]; 16 μM): 1134 pg/mL | RT (HIV (SF2 virus) [2]; 16 μM): 1514 pg/mL and 666 pg/mL and 1221 pg/mL | OD405-620 (HIV (SF2 virus) [2]; 16 μM): 0.189 and 0.111 and 0.162 | OD405-620 - Blank (HIV (SF2 virus) [2]; 16 μM): 0.163 and 0.085 and 0.136 | HIV replication at 25 μM (HIV (SF2 virus) [2]; 25 μM): neglible levels | RT mean (HIV (SF2 virus) [2]; 32 μM): 72 pg/mL | RT (HIV (SF2 virus) [2]; 32 μM): 48 pg/mL and 70 pg/mL and 97 pg/mL | OD405-620 (HIV (SF2 virus) [2]; 32 μM): 0.269 and 0.373 and 0.497 | OD405-620 - Blank (HIV (SF2 virus) [2]; 32 μM): 0.243 and 0.347 and 0.471 | IC50 (HIV (SF2 virus) [2]; Human immunodeficiency virus 1, H9, 264 h): 6 to 9 µM | stability to incubation at 37° C. (HIV (SF2 virus) [2]; diluted sample, antiretroviral activity compared with freshly diluted compound): stable to incubation at 37 °C for at least three days | concentration for appreciable inhibition of HIV replication (HIV (SF2 virus) [2]; whether heat-treated or not): above 8 μM | concentration for better antiretroviral activity (HIV (SF2 virus) [2]; whether heat-treated or not): above 16 μM | concentration for very efficient inhibition of HIV replication (HIV (SF2 virus) [2]; whether heat-treated or not): above 30 μM | EC50 (HIV-2 (ROD)): 52 ± 23 µM | EC50 (HIV-2(ROD); Human immunodeficiency virus 2, C8166, read-out: EC50 (C8166) HIV-2 (ROD)): 125 µM | EC50 (HIV-2(ROD); Human immunodeficiency virus 2, MT4, read-out: EC50 (MT-4) HIV-2 (ROD)): ≥ 500 µM | EC50 (HIV-2(ROD); read-out: EC50 (MT-4) HIV-2 (ROD), Table 20): ≥ 500 µM | EC50 (HIV-1 (IIIB); C8166, read-out: EC50 (C8166) HIV-1 (IIIB)): 200 µM | EC50 (HIV-1 (IIIB); MT4, read-out: EC50 (MT-4) HIV-1 (IIIB)): ≥ 500 µM | EC50 (HIV-1 (IIIB); MT4, read-out: EC50 (MT-4) HIV-1(IIIB)): ≥ 500 µM

From patent US20080076824A1, “Compounds That Inhibit Replication Of Human Immunodeficiency Virus” (priority 2004, published 2008)
